Where a name gives a salt, the structure may show the parent alone.
Tested on: Plasmodium falciparum (K1, resistant to chloroquine)
Assay: In vitro growth inhibition assay of P. falciparum
Type: cell-based
Settings: for IC50: Plasmodium falciparum, K1, read-out: antiplasmodial IC50, P. falciparum, in vitro

SMILES | IC50 [nM] | other results
CC(C)NC(=N)c1cccc(-c2cn(-c3cc(C(=N)NC(C)C)ccc3O)nn2)c1.Cl.Cl [Compound 11, 1-(5-N-Isopropylamidino-2-hydroxyphenyl)-4-(3-N-isopropylamidinophenyl)-1H-1,2,3-triazole Dihydrochloride] |  | fold lower antiplasmodial activity (relative to congener 2): 7 fold; fold lower antiplasmodial activity (relative to congener 5): 6 fold
Cl.Cl.Oc1ccc(C2=NCCN2)cc1-c1cn(-c2cccc(C3=NCCN3)c2)nn1 [Compound 15, 4-[5-(4,5-Dihydro-1H-imidazol-2-yl)-2-hydroxyphenyl]-1-[3-(4,5-dihydro-1H-imidazol-2-yl)phenyl]-1H-1,2,3-triazole Dihydrochloride] | < 58 | fold more active against P. falciparum (relative to diimidazoline 3): 7 fold
COc1ccc(C2=NCCN2)cc1-c1cn(-c2ccc(C3=NCCN3)cc2)nn1 [Compound 24, 4-[5-(4,5-Dihydro-1H-imidazol-2-yl)-2-methoxyphenyl]-1-[4-(4,5-dihydro-1H-imidazol-2-yl)phenyl]-1H-1,2,3-triazole Dihydrochloride] | < 58 | 
CC(C)NC(=N)c1ccc(-n2cc(-c3cc(C(=N)NC(C)C)ccc3O)nn2)cc1 [Compound 29, 4-(5-N-Isopropylamidino-2-hydroxyphenyl)-1-(4-N-isopropylamidinophenyl)-1H-1,2,3-triazole Dihydrochloride] | < 58 | 
COc1ccc(C(=N)N)cc1-n1cc(-c2ccc(C(=N)N)cc2)nn1.Cl.Cl [Compound 34, 1-(5-Amidino-2-methoxyphenyl)-4-(4-amidinophenyl)-1H-1,2,3-triazole Dihydrochloride] | < 58 | fold less active against P. falciparum (relative to congener 31): 4 fold
COc1ccc(C(=N)NC(C)C)cc1-n1cc(-c2ccc(C(=N)NC(C)C)cc2)nn1.Cl.Cl [Compound 35, 1-(5-N-Isopropylamidino-2-methoxyphenyl)-4-(4-N-isopropylamidinophenyl)-1H-1,2,3-triazole Dihydrochloride] |  | fold less active against P. falciparum (relative to bis(N-isopropyl)amidine 32): 5 fold
COc1ccc(C2=NCCN2)cc1-n1cc(-c2ccc(C3=NCCN3)cc2)nn1 [Compound 36, 1-[5-(4,5-Dihydro-1H-imidazol-2-yl)-2-methoxyphenyl]-4-[4-(4,5-dihydro-1H-imidazol-2-yl)phenyl]-1H-1,2,3-triazole Dihydrochloride] | < 58 | 
Cl.Cl.N=C(N)c1ccc(-c2cn(-c3cc(C(=N)N)ccc3O)nn2)cc1 [Compound 40, 1-(5-Amidino-2-hydroxyphenyl)-4-(4-amidinophenyl)-1H-1,2,3-triazole Dihydrochloride] |  | fold less active against P. falciparum (relative to congener 31): 308 fold
CC(C)NC(=N)c1cccc(-n2cc(-c3ccc(C(=N)NC(C)C)cc3O)nn2)c1 [Compound 44, 4-(4-N-Isopropylamidino-2-hydroxyphenyl)-1-(3-N-isopropylamidinophenyl)-1H-1,2,3-triazole Dihydrochloride] | < 58 | 
Oc1cc(C2=NCCN2)ccc1-c1cn(-c2cccc(C3=NCCN3)c2)nn1 [Compound 45, 4-[4-(4,5-Dihydro-1H-imidazol-2-yl)-2-hydroxyphenyl]-1-[3-(4,5-dihydro-1H-imidazol-2-yl)phenyl]-1H-1,2,3-triazole Dihydrochloride] | < 58 | 
c1cc(-c2cn(-c3ccc(C4=NCCN4)cc3)nn2)ccc1C1=NCCN1 [Compound 48, 1,4-Bis(4-(4,5-dihydro-1H-imidazol-2-yl)phenyl)-1H-1,2,3-triazole Dihydrochloride] | < 58 | 
COc1cc(C(=N)N)ccc1-n1cc(-c2ccc(C(=N)N)cc2)nn1 [Compound 49, 1-(4-Amidino-2-methoxyphenyl)-4-(4-amidinophenyl)-1H-1,2,3-triazole Dihydrochloride] | < 58 | 
COc1cc(C(=N)NC(C)C)ccc1-n1cc(-c2ccc(C(=N)NC(C)C)cc2)nn1 [Compound 50, 1-(4-N-Isopropylamidino-2-methoxyphenyl)-4-(4-N-isopropylamidinophenyl)-1H-1,2,3-triazole Dihydrochloride] | < 58 | 

Reference: article PMC3113660 (Journal of medicinal chemistry, 2010)
